For one experiment, the system named is Tetranychus urticae. As to the kind of experiment: Efficacy test against Tetranychus urticae (spray on common beans). It counts as in vivo. The note with it: 125 ppm by mass, sprayed on common beans; female adults; 25° C., humidity 65%; 10 days after spraying.
A further experiment has as its system Tetranychus kanzawai. Nature of the experiment: Efficacy test against Tetranychus kanzawai (spray on mung beans). Type of experiment: in vivo. Conditions: 125 ppm by mass, sprayed on mung beans; female adults; 25° C., humidity 65%; 10 days after spraying.

For the molecule `CSCC1CCN(C(=O)c2cc(C#N)c(-c3ccc(C(F)(F)F)cc3)nc2C)CC1` [a-90], the acaricidal rate entry in the experiment with Tetranychus urticae and in the experiment on Tetranychus kanzawai was “a-90%” each time.

Regarding `CCSCC1CCN(C(=O)c2cc(C#N)c(-c3ccc(C(F)(F)F)cc3)nc2CSC)CC1` [a-190], the acaricidal rate result with Tetranychus urticae is “a-190%”.

In the case of `CCSCC1CCN(C(=O)c2cc(C(N)=S)c(-c3ccc(C(F)(F)F)cc3)nc2C(F)(F)C(F)(F)F)CC1` [b-90], the acaricidal rate entry in the experiment on Tetranychus urticae is “b-90%”.

Source of the values: patent US20200163336A1, “CYCLIC AMINE COMPOUND AND PEST CONTROL AGENT” (Nippon Soda Co., Ltd., priority 2017, published 2020).
